Results: ChEMBL document CHEMBL3885881, “DrugMatrix”

Species: Rattus norvegicus
Experiment: DrugMatrix - Regimen: Daily Repeat
Format: toxicity, organism-based, Sprague-Dawley
Set-up: regimen Daily Repeat, gender Male, age 6-8 weeks
Conditions: in vivo, po, route oral GAVAGE, […]; for ABSOLUTE BASOPHIL / ABSOLUTE EOSINOPHIL / ABSOLUTE LYMPHOCYTE / ABSOLUTE MONOCYTE / ABSOLUTE SEGMENTED NEUTROPHIL / BASOPHIL / EOSINOPHIL / ERYTHROCYTE COUNT / HEMATOCRIT / HEMOGLOBIN / LEUKOCYTE COUNT / LYMPHOCYTE / MEAN CORPUSCULAR HEMOGLOBIN / MEAN CORPUSCULAR HEMOGLOBIN CONCENTRATION / MEAN CORPUSCULAR VOLUME / MONOCYTE / NEUTROPHIL / NUCLEATED RED BLOOD CELLS / PLATELET COUNT: tissue Blood; for ALANINE AMINOTRANSFERASE / ALBUMIN / ALKALINE PHOSPHATASE / ASPARTATE AMINOTRANSFERASE / BLOOD UREA NITROGEN / CARBON DIOXIDE / CHLORIDE / CHOLESTEROL / CREATINE PHOSPHOKINASE / CREATININE / GLUCOSE / LACTATE DEHYDROGENASE / LIPASE / PHOSPHORUS / POTASSIUM / SODIUM / TOTAL BILIRUBIN / TOTAL PROTEIN / URIC ACID: tissue Plasma
[1] = 0 mg/kg, 72 h, dose level Control, time 3 day
[2] = 0 mg/kg, 120 h, dose level Control, time 5 day
[3] = 11 mg/kg, 72 h, dose level High, time 3 day

C[C@H]1O[C@@H](O[C@H]2[C@@H](O)C[C@H](O[C@H]3[C@@H](O)C[C@H](O[C@H]4CC[C@@]5(C)[C@H](CC[C@@H]6[C@@H]5C[C@@H](O)[C@]5(C)[C@@H](C7=CC(=O)OC7)CC[C@]65O)C4)O[C@@H]3C)O[C@@H]2C)C[C@H](O)[C@@H]1O [DIGOXIN]
ABSOLUTE BASOPHIL [1]: 0 CELLS/uL | ABSOLUTE EOSINOPHIL [1]: 0 CELLS/uL | ABSOLUTE LYMPHOCYTE [1]: 8493 CELLS/uL | ABSOLUTE MONOCYTE [1]: 127 CELLS/uL | ABSOLUTE SEGMENTED NEUTROPHIL [1]: 896.67 CELLS/uL | BASOPHIL [1]: 0% | EOSINOPHIL [1]: 0% | ERYTHROCYTE COUNT [1]: 5.53 x10E6/uL | HEMATOCRIT [1]: 34.07% | HEMOGLOBIN [1]: 13.28 G/DL | LEUKOCYTE COUNT [1]: 9.52 x10E3/uL | LYMPHOCYTE [1]: 89.17% | MEAN CORPUSCULAR HEMOGLOBIN [1]: 24.07 pg | MEAN CORPUSCULAR HEMOGLOBIN CONCENTRATION [1]: 39.03 G/DL | MEAN CORPUSCULAR VOLUME [1]: 61.62 fL | MONOCYTE [1]: 1.33% | NEUTROPHIL [1]: 9.5% | NUCLEATED RED BLOOD CELLS [1]: 0.17 /100WBC | PLATELET COUNT [1]: 1054.17 x10E3/uL | ALANINE AMINOTRANSFERASE [1]: 77.67 u/L | ALBUMIN [1]: 4.08 G/DL | ALKALINE PHOSPHATASE [1]: 404.5 u/L | ASPARTATE AMINOTRANSFERASE [1]: 83.17 u/L | BLOOD UREA NITROGEN [1]: 14.33 mg/dL | CARBON DIOXIDE [1]: 33.17 mmol/L | CHLORIDE [1]: 101 MEQ/L | CHOLESTEROL [1]: 76.33 mg/dL | CREATINE PHOSPHOKINASE [1]: 184.5 u/L | CREATININE [1]: 0.13 mg/dL | GLUCOSE [1]: 163.67 mg/dL | LACTATE DEHYDROGENASE [1]: 130.33 u/L | LIPASE [1]: 11 u/L | PHOSPHORUS [1]: 9.27 mg/dL | POTASSIUM [1]: 6.26 MEQ/L | SODIUM [1]: 143.57 MEQ/L | TOTAL BILIRUBIN [1]: 0.18 mg/dL | TOTAL PROTEIN [1]: 5.82 G/DL | URIC ACID [1]: 1.38 mg/dL | ABSOLUTE BASOPHIL [2]: 0 CELLS/uL | ABSOLUTE EOSINOPHIL [2]: 0 CELLS/uL | ABSOLUTE LYMPHOCYTE [2]: 8546.17 CELLS/uL | ABSOLUTE MONOCYTE [2]: 49.5 CELLS/uL | ABSOLUTE SEGMENTED NEUTROPHIL [2]: 554.33 CELLS/uL | BASOPHIL [2]: 0% | EOSINOPHIL [2]: 0% | ERYTHROCYTE COUNT [2]: 5.36 x10E6/uL | HEMATOCRIT [2]: 33.38% | HEMOGLOBIN [2]: 13.2 G/DL | LEUKOCYTE COUNT [2]: 9.15 x10E3/uL | LYMPHOCYTE [2]: 93.17% | MEAN CORPUSCULAR HEMOGLOBIN [2]: 24.68 pg | MEAN CORPUSCULAR HEMOGLOBIN CONCENTRATION [2]: 39.58 G/DL | MEAN CORPUSCULAR VOLUME [2]: 62.38 fL | MONOCYTE [2]: 0.5% | NEUTROPHIL [2]: 6.33% | NUCLEATED RED BLOOD CELLS [2]: 0.17 /100WBC | PLATELET COUNT [2]: 1099.33 x10E3/uL | ALANINE AMINOTRANSFERASE [2]: 62.33 u/L | ALBUMIN [2]: 4.1 G/DL | ALKALINE PHOSPHATASE [2]: 419 u/L | ASPARTATE AMINOTRANSFERASE [2]: 83.17 u/L | BLOOD UREA NITROGEN [2]: 15.5 mg/dL | CARBON DIOXIDE [2]: 33.17 mmol/L | CHLORIDE [2]: 98 MEQ/L | CHOLESTEROL [2]: 58.33 mg/dL | CREATINE PHOSPHOKINASE [2]: 393.17 u/L | CREATININE [2]: 0.18 mg/dL | GLUCOSE [2]: 163 mg/dL | LACTATE DEHYDROGENASE [2]: 111.5 u/L | LIPASE [2]: 9.5 u/L | PHOSPHORUS [2]: 10.02 mg/dL | POTASSIUM [2]: 5.73 MEQ/L | SODIUM [2]: 143.65 MEQ/L | TOTAL BILIRUBIN [2]: 0.2 mg/dL | TOTAL PROTEIN [2]: 5.85 G/DL | URIC ACID [2]: 0.78 mg/dL | ABSOLUTE BASOPHIL [3]: 0 CELLS/uL | ABSOLUTE EOSINOPHIL [3]: 0 CELLS/uL | ABSOLUTE LYMPHOCYTE [3]: 7683.67 CELLS/uL | ABSOLUTE MONOCYTE [3]: 95.67 CELLS/uL | ABSOLUTE SEGMENTED NEUTROPHIL [3]: 254 CELLS/uL | BASOPHIL [3]: 0% | EOSINOPHIL [3]: 0% | ERYTHROCYTE COUNT [3]: 6.46 x10E6/uL | HEMATOCRIT [3]: 39.07% | HEMOGLOBIN [3]: 14.83 G/DL | LEUKOCYTE COUNT [3]: 8.03 x10E3/uL | LYMPHOCYTE [3]: 95.67% | MEAN CORPUSCULAR HEMOGLOBIN [3]: 22.9 pg | MEAN CORPUSCULAR HEMOGLOBIN CONCENTRATION [3]: 37.9 G/DL | MEAN CORPUSCULAR VOLUME [3]: 60.4 fL | MONOCYTE [3]: 1% | NEUTROPHIL [3]: 3.33% | NUCLEATED RED BLOOD CELLS [3]: 0 /100WBC | PLATELET COUNT [3]: 1036 x10E3/uL | ALANINE AMINOTRANSFERASE [3]: 99.67 u/L | ALBUMIN [3]: 4.37 G/DL | ALKALINE PHOSPHATASE [3]: 416 u/L | ASPARTATE AMINOTRANSFERASE [3]: 100.33 u/L | BLOOD UREA NITROGEN [3]: 11.67 mg/dL | CARBON DIOXIDE [3]: 33 mmol/L | CHLORIDE [3]: 100 MEQ/L | CHOLESTEROL [3]: 90.67 mg/dL | CREATINE PHOSPHOKINASE [3]: 245.33 u/L | CREATININE [3]: 0.1 mg/dL | GLUCOSE [3]: 142.33 mg/dL | LACTATE DEHYDROGENASE [3]: 125.67 u/L | LIPASE [3]: 10.33 u/L | PHOSPHORUS [3]: 8.27 mg/dL | POTASSIUM [3]: 6.27 MEQ/L | SODIUM [3]: 143.3 MEQ/L | TOTAL BILIRUBIN [3]: 0.2 mg/dL | TOTAL PROTEIN [3]: 6.3 G/DL | URIC ACID [3]: 1 mg/dL
